Molecular target: hMC2 receptor (Homo sapiens, UniProt Q01718)
Experiment: hMC2 membrane binding assay ([125I]ACTH (1-39) Tyr23, SPA)
Set-up: scale not given here
Settings: crude hMC2R membranes from CRE-bla-CHO-K1 cells expressing hMC2 receptor and hMRAP; [125I]ACTH (1-39) Tyr23 0.2 nM; 1.5 hours at room temperature; read-out: MC2R binding potency
In short: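 CRE-bla-CHO-K1 membranes co-expressing hMC2 receptor and hMRAP, preincubated with WGA PVT SPA beads in pH 7.4 HEPES/MgCl2/CaCl2/0.2% BSA buffer. Compounds (typically 0–10,000 nM final) compete with 0.2 nM [125I]ACTH(1-39) Tyr23 for 1.5 h at room temperature. SPA counts give Ki by non-linear regression.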

Chain of hMC2 receptor (Q01718 whole entry): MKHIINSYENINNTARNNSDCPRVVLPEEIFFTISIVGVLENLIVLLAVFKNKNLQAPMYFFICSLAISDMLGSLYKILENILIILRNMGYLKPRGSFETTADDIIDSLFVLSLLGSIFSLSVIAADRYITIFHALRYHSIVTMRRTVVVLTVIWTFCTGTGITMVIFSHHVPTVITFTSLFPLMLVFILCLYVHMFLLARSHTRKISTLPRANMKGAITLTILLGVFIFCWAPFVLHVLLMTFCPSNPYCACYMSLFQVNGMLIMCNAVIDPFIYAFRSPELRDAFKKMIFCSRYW
Chain of hMC2 receptor (Q8TCY5 whole entry partner): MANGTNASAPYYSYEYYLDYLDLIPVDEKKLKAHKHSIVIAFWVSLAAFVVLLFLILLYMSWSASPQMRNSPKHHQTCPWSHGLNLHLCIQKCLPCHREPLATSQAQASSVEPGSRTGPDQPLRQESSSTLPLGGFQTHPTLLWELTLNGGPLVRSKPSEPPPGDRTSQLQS

Ki	Compound
< 10 nM	CCOc1ncccc1-c1ccc(N2CCN(C(=O)C3(c4ccccc4)CCC3)C[C@H]2CC)c(C(=O)N[C@@H]2CCN(C)C2)n1 [Compound 1-358, 2′-ethoxy-5-[(2R)-2-ethyl-4-(1-phenylcyclobutanecarbonyl)piperazin-1-yl]-N-[(3R)-1-methylpyrrolidin-3-yl]-[2,3′-bipyridine]-6-carboxamide]
< 10 nM	CCOc1ncccc1-c1ccc(N2CCN(C(=O)N3CCc4cccc(C)c43)C[C@H]2CC)c(C(=O)N[C@@H]2CCNC2)n1 [Compound 1-360, 2′-ethoxy-5-[(2R)-2-ethyl-4-(7-methyl-2,3-dihydro-1H-indole-1-carbonyl)piperazin-1-yl]-N-[(3R)-pyrrolidin-3-yl]-[2,3′-bipyridine]-6-carboxamide]
< 10 nM	CCOc1ncccc1-c1ccc(N2CCN(C(=O)N3CCc4cccc(C(F)(F)F)c43)C[C@H]2CC)c(C(=O)N[C@@H]2CCNC2)n1 [Compound 1-361, 2′-ethoxy-5-[(2R)-2-ethyl-4-[7-(trifluoromethyl)-2,3-dihydro-1H-indole-1-carbonyl]piperazin-1-yl]-N-[(3R)-pyrrolidin-3-yl]-[2,3′-bipyridine]-6-carboxamide]
< 10 nM	CCOc1ccccc1-c1ccc(N2CCN(C(=O)N3CCC[C@H]3C(F)(F)F)C[C@H]2CC)c(C(=O)NCC2CN(C)C2)n1 [Compound 1-362, 6-(2-ethoxyphenyl)-3-[(2R)-2-ethyl-4-[(2S)-2-(trifluoromethyl)pyrrolidine-1-carbonyl]piperazin-1-yl]-N-[(1-methylazetidin-3-yl)methyl]pyridine-2-carboxamide]
< 10 nM	CCOc1ncccc1-c1ccc(N2CCN(C(=O)C3(C(F)(F)F)CCCC3)C[C@H]2CC)c(C(=O)N[C@H]2CCN(C)C2)n1 [Compound 1-363, 2′-ethoxy-5-[(2R)-2-ethyl-4-[1-(trifluoromethyl)cyclopentanecarbonyl]piperazin-1-yl]-N-[(3S)-1-methylpyrrolidin-3-yl]-[2,3′-bipyridine]-6-carboxamide]
< 10 nM	CCOc1ncccc1-c1ccc(N2CCN(C(=O)N3CCc4cccc(C#N)c43)C[C@H]2CC)c(C(=O)N[C@@H]2CCNC2)n1 [Compound 1-365, 5-[(2R)-4-(7-cyano-2,3-dihydro-1H-indole-1-carbonyl)-2-ethylpiperazin-1-yl]-2′-ethoxy-N-[(3R)-pyrrolidin-3-yl]-[2,3′-bipyridine]-6-carboxamide]
< 10 nM	CCOc1ncccc1-c1ccc(N2CCN(C(=O)c3ccc(C(F)(F)F)s3)C[C@H]2CC)c(C(=O)N[C@@H]2CCNC2)n1 [Compound 1-368, 2′-ethoxy-5-[(2R)-2-ethyl-4-[5-(trifluoromethyl)thiophene-2-carbonyl]piperazin-1-yl]-N-[(3R)-pyrrolidin-3-yl]-[2,3′-bipyridine]-6-carboxamide]
< 10 nM	CCOc1ncccc1-c1ccc(N2CCN(C(=O)C3(c4ccc(F)cc4F)CCC3)C[C@H]2CC)c(C(=O)N[C@@H]2CCN(C)C2)n1 [Compound 1-371, 5-[(2R)-4-[1-(2,4-difluorophenyl)cyclobutanecarbonyl]-2-ethylpiperazin-1-yl]-2′-ethoxy-N-[(3R)-1-methylpyrrolidin-3-yl]-[2,3′-bipyridine]-6-carboxamide]
< 10 nM	CCOc1ncccc1-c1ccc(N2CCN(C(=O)N3CCC[C@H]3C(F)(F)F)C[C@H]2CC)c(C(=O)N[C@@H]2CCN(C)C2)n1 [Compound 1-372, 2′-ethoxy-5-[(2R)-2-ethyl-4-[(2S)-2-(trifluoromethyl)pyrrolidine-1-carbonyl]piperazin-1-yl]-N-[(3R)-1-methylpyrrolidin-3-yl]-[2,3′-bipyridine]-6-carboxamide]
< 10 nM	CCOc1ncccc1-c1ccc(N2CCN(C(=O)N3CCC[C@H]3C(F)(F)F)C[C@H]2CC)c(C(=O)N[C@H]2CCN(C)C2)n1 [Compound 1-373, 2′-ethoxy-5-[(2R)-2-ethyl-4-[(2S)-2-(trifluoromethyl)pyrrolidine-1-carbonyl]piperazin-1-yl]-N-[(3S)-1-methylpyrrolidin-3-yl]-[2,3′-bipyridine]-6-carboxamide]
< 10 nM	CCOc1ccccc1-c1ccc(N2CCN(C(=O)N3CCC[C@H]3C(F)(F)F)C[C@H]2CC)c(C(=O)N[C@@H]2CCN(C)C2)n1 [Compound 1-374, 6-(2-ethoxyphenyl)-3-[(2R)-2-ethyl-4-[(2S)-2-(trifluoromethyl)pyrrolidine-1-carbonyl]piperazin-1-yl]-N-[(3R)-1-methylpyrrolidin-3-yl]pyridine-2-carboxamide]
< 10 nM	CCOc1ccccc1-c1ccc(N2CCN(C(=O)N3CCC[C@H]3C(F)(F)F)C[C@H]2CC)c(C(=O)N[C@H]2CCN(C)C2)n1 [Compound 1-375, 6-(2-ethoxyphenyl)-3-[(2R)-2-ethyl-4-[(2S)-2-(trifluoromethyl)pyrrolidine-1-carbonyl]piperazin-1-yl]-N-[(3S)-1-methylpyrrolidin-3-yl]pyridine-2-carboxamide]
< 10 nM	CCOc1ncccc1-c1ccc(N2CCN(C(=O)OC(C(C)(C)C)C(F)(F)F)C[C@H]2CC)c(C(=O)N[C@@H]2CCN(C)C2)n1 (stereo partly drawn) [Compound 1-376, 1,1,1-trifluoro-3,3-dimethylbutan-2-yl (3R)-4-(2′-ethoxy-6-{[(3R)-1-methylpyrrolidin-3-yl]carbamoyl}-[2,3′-bipyridin]-5-yl)-3-ethylpiperazine-1-carboxylate]
< 10 nM	CCOc1ncccc1-c1ccc(N2CCN(C(=O)O[C@@H](c3ccccc3)C(F)(F)F)C[C@H]2CC)c(C(=O)N[C@@H]2CCNC2)n1 [Compound 1-377, (1S)-2,2,2-trifluoro-1-phenylethyl (3R)-4-(2′-ethoxy-6-{[(3R)-pyrrolidin-3-yl]carbamoyl}-[2,3′-bipyridin]-5-yl)-3-ethylpiperazine-1-carboxylate]
< 10 nM	CCOc1ncccc1-c1ccc(N2CCN(C(=O)c3cc(Cl)sc3Cl)C[C@H]2CC)c(C(=O)N[C@@H]2CCN(C)C2)n1 [Compound 1-378, 5-[(2R)-4-(2,5-dichlorothiophene-3-carbonyl)-2-ethylpiperazin-1-yl]-2′-ethoxy-N-[(3R)-1-methylpyrrolidin-3-yl]-[2,3′-bipyridine]-6-carboxamide]
< 10 nM	CCOc1ncccc1-c1ccc(N2CCN(C(=O)c3sc(Cl)cc3Cl)C[C@H]2CC)c(C(=O)N[C@@H]2CCN(C)C2)n1 [Compound 1-380, 5-[(2R)-4-(3,5-dichlorothiophene-2-carbonyl)-2-ethylpiperazin-1-yl]-2′-ethoxy-N-[(3R)-1-methylpyrrolidin-3-yl]-[2,3′-bipyridine]-6-carboxamide]
< 10 nM	CCOc1ncccc1-c1ccc(N2CCN(C(=O)N3CCC[C@H]3c3cccc(F)c3)C[C@H]2CC)c(C(=O)N[C@@H]2CCN(C)C2)n1 [Compound 1-381, 2′-ethoxy-5-[(2R)-2-ethyl-4-[(2S)-2-(3-fluorophenyl)pyrrolidine-1-carbonyl]piperazin-1-yl]-N-[(3R)-1-methylpyrrolidin-3-yl]-[2,3′-bipyridine]-6-carboxamide]
< 10 nM	CCOc1ncccc1-c1ccc(N2CCN(C(=O)C3CCc4cccc(Cl)c43)C[C@H]2CC)c(C(=O)N[C@@H]2CCN(C)C2)n1 (stereo partly drawn) [Compound 1-382, 5-[(2R)-4-(7-chloro-2,3-dihydro-1H-indene-1-carbonyl)-2-ethylpiperazin-1-yl]-2′-ethoxy-N-[(3R)-1-methylpyrrolidin-3-yl]-[2,3′-bipyridine]-6-carboxamide]

From patent US10981894B2, “Melanocortin subtype-2 receptor (MC2R) antagonists and uses thereof” (Crinetics Pharmaceuticals, Inc., priority 2018, dated 2021)
